Assay: UV-vis absorption, stability constant by modified Benesi-Hildebrand equation
Type: physicochemical
Settings: UV absorption spectra, ethanol/water (50%, v/v), 1:1 host-guest complex assumed
Experimental: Furthermore, absorption spectra obtained with various concentrations of β-CD (0 to 1.44 mmol/L) and added to a constant drug (0.03753 mmol/L UA or 0.038715 mmol/L OA) concentration in ethanol/water (50%, v/v) were scanned by the UV spectrophotometry (Shimadzu UV-2401 visible spectrophotometer, Shimadzu Corp., Tokyo, Japan). The stability constant was calculated according to the modified Benesi-Hildebrand equation Eq. (1) assuming the formation of a 1:1 host-guest complex^[[14]^].
(1) 1/ΔA=1/KΔε[D]01/[CD]0+1/Δε[D]0 Where ΔA was the change in absorbance of drugs at λmax in the presence and absence of β-CD. [D]0 and [CD]0 were the total concentration of added drug and β-CD, respectively. Δε represented the difference in molar absorptivities between the free drug and the inclusion complex, and K was the stability constant.

| SMILES | stability constant K |
| --- | --- |
| CC1(C)CC[C@]2(C(=O)O)CC[C@]3(C)C(=CC[C@@H]4[C@@]5(C)CC[C@H](O)C(C)(C)[C@@H]5CC[C@]43C)[C@@H]2C1 [OA, oleanolic acid] | 5157 L/mol |
| C[C@H]1[C@H](C)CC[C@]2(C(=O)O)CC[C@]3(C)C(=CC[C@@H]4[C@@]5(C)CC[C@H](O)C(C)(C)[C@@H]5CC[C@]43C)[C@H]12 [UA, ursolic acid] | 5642 L/mol |
